Each compound was assayed against human P2X7 receptor (Homo sapiens, UniProt Q99572, R270H/Y155H) (assay: Evaluation of human P2X7 receptor inhibitory activity (Yo-Pro uptake, BzATP stimulation, FLIPR TETRA)). Conditions: 1321N1 cells stably expressing human P2X7 receptor; BzATP stimulation, Yo-Pro uptake; read-out: IC50 (antagonistic activity for the human P2X7 receptor).
Type: cell-based
Method in brief: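 1321N1 cells stably expressing human P2X7 (T606C/G952A SNP variant), in HBSS buffer pH 7.4-7.5 with Yo-Pro, stimulated with BzATP; compound added 8 min after agonist. Fluorescence followed for 20 min on FLIPR; max-minus-min change gave % inhibition, IC50 by logistic fit.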

| Compound | IC50 |
| --- | --- |
| COc1cc(C)cc(Nc2nc(=O)c(OC)cn2Cc2cccc(F)c2)c1C [Compound I-0405] | 2 nM |
| COc1ccc(C)c(Nc2nc(=O)c(OC)cn2Cc2ccc(F)c(F)c2)c1 [Compound I-0407] | 6 nM |
| COc1cn(Cc2cc(C)cc(F)c2)c(Nc2cccc(Cl)c2C)nc1=O [Compound I-0425] | 19 nM |
| COc1cn(Cc2cc(F)cc(F)c2)c(Nc2cc(C)c(F)cc2C)nc1=O [Compound I-0437] | 8 nM |
| COc1cc(C)c(Nc2nc(=O)c(OC)cn2Cc2cc(F)cc(Cl)c2)cc1OC [Compound I-0452] | 110 nM |
| CCc1ccccc1CNc1nc(=O)c(OC)cn1Cc1ccc(F)c(Cl)c1 [Compound I-0453] | 73 nM |
| COc1cn(Cc2ccc(F)c(F)c2)c(Nc2cccc(OC(F)F)c2C)nc1=O [Compound I-0480] | 4 nM |

Same assay, conditions: 1321N1 cells stably expressing human P2X7 receptor; BzATP stimulation, Yo-Pro uptake; read-out: IC50 (antagonistic activity for the human P2X7 receptor), class symbol

| Compound | IC50 |
| --- | --- |
| COc1cc(C)cc(Nc2nc(=O)c(OC)cn2Cc2ccc(F)c(F)c2)c1C [Compound I-0404] | < 10 nM |
| COc1cc(C)c(Nc2nc(=O)c(Cl)cn2Cc2ccc(F)cc2)cc1OC [Compound I-0406] | < 10 nM |
| COc1ccc(C)c(Nc2nc(=O)c(OC)cn2Cc2cc(F)cc(F)c2)c1 [Compound I-0408] | 10 to 100 nM |
| COc1ccc(C)c(Nc2nc(=O)c(OC)cn2Cc2cc(F)cc(Cl)c2)c1 [Compound I-0409] | 10 to 100 nM |
| COc1c(C)ccc(Nc2nc(=O)c(OC)cn2Cc2ccccc2)c1C [Compound I-0410] | < 10 nM |
| COc1cn(Cc2ccccc2)c(Nc2cc(N3CCN(C(=O)OC(C)(C)C)CC3)ccc2C)nc1=O [Compound I-0411] | 100 to 500 nM |
| COc1cn(Cc2ccc(F)c(Cl)c2)c(Nc2cc(N3CCN(C(=O)OC(C)(C)C)CC3)ccc2C)nc1=O [Compound I-0412] | 100 to 500 nM |
| COc1cn(Cc2ccccc2)c(Nc2cc(S(=O)(=O)Nc3ccccc3)c(F)cc2C)nc1=O [Compound I-0415] | 500 to 1000 nM |
| COc1cn(Cc2ccccc2)c(Nc2cc(-c3nc4ncccc4o3)ccc2C)nc1=O [Compound I-0416] | 10 to 100 nM |
| COc1cn(Cc2ccc(F)c(Cl)c2)c(Nc2cc(-c3nc4ncccc4o3)ccc2C)nc1=O [Compound I-0417] | 100 to 500 nM |
| COc1c(C)ccc(Nc2nc(=O)c(OC)cn2Cc2ccc(F)c(Cl)c2)c1C [Compound I-0419] | < 10 nM |
| CCc1cc(F)ccc1Nc1nc(=O)c(OC)cn1Cc1ccc(F)c(Cl)c1 [Compound I-0420] | 10 to 100 nM |
| COc1cn(Cc2ccccc2OC(F)F)c(Nc2cccc(Cl)c2C)nc1=O [Compound I-0421] | 10 to 100 nM |
| COc1cn(Cc2ccccc2COC(F)F)c(Nc2cccc(Cl)c2C)nc1=O [Compound I-0422] | 500 to 1000 nM |
| COc1cn(Cc2ccccc2)c(Nc2cc(Cl)c(Cl)cc2C)nc1=O [Compound I-0423] | 10 to 100 nM |
| COc1cc(C)cc(Nc2nc(=O)c(OC)cn2Cc2ccc(F)c(Cl)c2)c1C [Compound I-0424] | < 10 nM |
| COc1cn(Cc2ccc(F)c(Cl)c2)c(Nc2cc(Cl)c(Cl)cc2C)nc1=O [Compound I-0426] | 10 to 100 nM |
| COc1cc(F)cc(Cn2cc(OC)c(=O)nc2Nc2cccc(Cl)c2C)c1 [Compound I-0427] | 100 to 500 nM |
| COc1cc(C)cc(Nc2nc(=O)c(OC)cn2Cc2cccc(Cl)c2)c1C [Compound I-0428] | < 10 nM |
| COc1cn(Cc2ccccc2)c(Nc2cccc(SC)c2C)nc1=O [Compound I-0429] | < 10 nM |
| COc1cn(Cc2ccc(F)c(Cl)c2)c(Nc2cccc(SC)c2C)nc1=O [Compound I-0430] | < 10 nM |
| COc1cn(Cc2ccccc2)c(Nc2cc3sc(C)nc3cc2C)nc1=O [Compound I-0431] | 10 to 100 nM |
| COc1cn(Cc2cccc(Cl)c2)c(Nc2cccc(N(C)C)c2C)nc1=O [Compound I-0432] | 10 to 100 nM |
| COc1cn(Cc2ccccc2)c(Nc2cc(C)c(F)cc2C)nc1=O [Compound I-0433] | < 10 nM |
| COc1cn(Cc2ccc(F)c(F)c2)c(Nc2cc(C)ccc2C)nc1=O [Compound I-0434] | < 10 nM |

| Compound | IC50 |
| --- | --- |
| CCc1ccccc1Nc1nc(=O)c(OC)cn1Cc1cc(F)cc(Cl)c1 [Compound I-0435] | 10 to 100 nM |
| COc1cn(Cc2cc(F)cc(F)c2)c(Nc2cc(C)ccc2C)nc1=O [Compound I-0436] | < 10 nM |
| COc1cccc(Nc2nc(=O)c(OC)cn2Cc2cc(F)cc(F)c2)c1C [Compound I-0438] | < 10 nM |
| COc1cc(C)c(Nc2nc(=O)c(OC)cn2Cc2cc(F)cc(F)c2)cc1OC [Compound I-0439] | < 10 nM |
| CCc1cc(OC)ccc1Nc1nc(=O)c(OC)cn1Cc1cc(F)cc(F)c1 [Compound I-0440] | < 10 nM |
| COc1cn(Cc2cc(F)cc(F)c2)c(Nc2cccc3sccc23)nc1=O [Compound I-0441] | < 10 nM |
| COc1cn(Cc2cccc(F)c2)c(Nc2cc(C)c(F)cc2C)nc1=O [Compound I-0442] | < 10 nM |
| COc1cn(Cc2ccc(F)cc2)c(Nc2cc(C)c(F)cc2C)nc1=O [Compound I-0443] | < 10 nM |
| COc1cn(Cc2cccc(Cl)c2)c(Nc2cc(-c3nnco3)ccc2C)nc1=O [Compound I-0444] | 10 to 100 nM |
| COc1cn(Cc2cc(F)cc(Cl)c2)c(Nc2cc(C)ccc2C)nc1=O [Compound I-0445] | 10 to 100 nM |
| COc1cn(Cc2ccccc2OC(F)F)c(Nc2cccc(Cl)c2C)nc1=O [Compound I-0446] | < 10 nM |
| COc1cn(Cc2ccccc2COC(F)F)c(Nc2cccc(Cl)c2C)nc1=O [Compound I-0447] | < 10 nM |
| COc1cn(Cc2ccccc2)c(Nc2cc(Cl)c(Cl)cc2C)nc1=O [Compound I-0448] | 10 to 100 nM |
| COc1cc(C)cc(Nc2nc(=O)c(OC)cn2Cc2ccc(F)c(Cl)c2)c1C [Compound I-0449] | < 10 nM |
| COc1cn(Cc2cc(C)cc(F)c2)c(Nc2cccc(Cl)c2C)nc1=O [Compound I-0450] | 10 to 100 nM |
| COc1cn(Cc2ccc(F)c(Cl)c2)c(NCc2cccc(Cl)c2C)nc1=O [Compound I-0451] | 100 to 500 nM |
| CCc1ccccc1CNc1nc(=O)c(OC)cn1Cc1cc(F)cc(F)c1 [Compound I-0454] | 10 to 100 nM |
| CCOc1ccc(C)c(Nc2nc(=O)c(OC)cn2Cc2ccccc2)c1 [Compound I-0455] | 10 to 100 nM |
| CCOc1ccc(C)c(Nc2nc(=O)c(OC)cn2Cc2cccc(Cl)c2)c1 [Compound I-0456] | 10 to 100 nM |
| COc1cn(Cc2ccccc2OC(F)F)c(Nc2cccc(Cl)c2C)nc1=O [Compound I-0457] | < 10 nM |
| COc1cn(Cc2ccccc2COC(F)F)c(Nc2cccc(Cl)c2C)nc1=O [Compound I-0458] | 10 to 100 nM |
| COc1cn(Cc2ccccc2)c(Nc2cc(Cl)c(Cl)cc2C)nc1=O [Compound I-0459] | < 10 nM |
| COc1cc(C)cc(Nc2nc(=O)c(OC)cn2Cc2ccc(F)c(Cl)c2)c1C [Compound I-0460] | 10 to 100 nM |
| COc1cn(Cc2cc(C)cc(F)c2)c(Nc2cccc(Cl)c2C)nc1=O [Compound I-0461] | < 10 nM |
| COc1cn(Cc2ccccc2OC(F)F)c(Nc2cccc(Cl)c2C)nc1=O [Compound I-0462] | 10 to 100 nM |

| Compound | IC50 |
| --- | --- |
| COc1cn(Cc2ccccc2COC(F)F)c(Nc2cccc(Cl)c2C)nc1=O [Compound I-0463] | < 10 nM |
| COc1cn(Cc2ccccc2)c(Nc2cc(Cl)c(Cl)cc2C)nc1=O [Compound I-0464] | < 10 nM |
| COc1cc(C)cc(Nc2nc(=O)c(OC)cn2Cc2ccc(F)c(Cl)c2)c1C [Compound I-0465] | < 10 nM |
| COc1cn(Cc2cc(C)cc(F)c2)c(Nc2cccc(Cl)c2C)nc1=O [Compound I-0466] | 10 to 100 nM |
| COc1cn(Cc2ccc(F)c(F)c2)c(Nc2cccc(C(F)(F)F)c2C)nc1=O [Compound I-0467] | < 10 nM |
| COc1cn(Cc2ccc(F)c(Cl)c2)c(Nc2cccc(C(F)(F)F)c2C)nc1=O [Compound I-0468] | 10 to 100 nM |
| COc1cc(C)c(Nc2nc(=O)c(OC)cn2Cc2cc(F)cc(Cl)c2)cc1OC [Compound I-0469] | < 10 nM |
| COc1cn(Cc2cc(F)cc(F)c2)c(Nc2cccc(C(F)(F)F)c2C)nc1=O [Compound I-0470] | 10 to 100 nM |
| Cc1c(Cl)cccc1Nc1nc(=O)c(F)cn1Cc1ccc(F)c(F)c1 [Compound I-0471] | < 10 nM |
| Cc1c(Cl)cccc1Nc1nc(=O)c(Cl)cn1Cc1ccc(F)c(F)c1 [Compound I-0472] | < 10 nM |
| COc1cc(Nc2nc(=O)c(OC)cn2Cc2ccccc2)c(C)cc1Cl [Compound I-0473] | < 10 nM |
| COc1cn(Cc2ccccc2OC(F)F)c(Nc2cccc(Cl)c2C)nc1=O [Compound I-0474] | < 10 nM |
| COc1cn(Cc2ccccc2COC(F)F)c(Nc2cccc(Cl)c2C)nc1=O [Compound I-0475] | < 10 nM |
| COc1cn(Cc2ccccc2)c(Nc2cc(Cl)c(Cl)cc2C)nc1=O [Compound I-0476] | < 10 nM |
| COc1cc(C)cc(Nc2nc(=O)c(OC)cn2Cc2ccc(F)c(Cl)c2)c1C [Compound I-0477] | < 10 nM |
| COc1cn(Cc2cc(C)cc(F)c2)c(Nc2cccc(Cl)c2C)nc1=O [Compound I-0478] | < 10 nM |
| COc1cn(Cc2cccc(Cl)c2)c(Nc2cccc(OC(F)F)c2C)nc1=O [Compound I-0479] | 10 to 100 nM |
| COc1cn(Cc2cccc(Cl)c2)c(Nc2cccc(C)c2Cl)nc1=O [Compound I-0481] | 10 to 100 nM |
| COc1cn(Cc2ccc(F)c(F)c2)c(Nc2cccc(C)c2Cl)nc1=O [Compound I-0482] | < 10 nM |
| COc1cn(Cc2ccc(F)c(Cl)c2)c(Nc2cccc(C)c2Cl)nc1=O [Compound I-0483] | < 10 nM |
| COc1cn(Cc2cccc(Cl)c2)c(Nc2cccc3sccc23)nc1=O [Compound I-0484] | 10 to 100 nM |
| COc1cn(Cc2ccc(F)c(F)c2)c(Nc2cccc3sccc23)nc1=O [Compound I-0485] | < 10 nM |
| COc1cn(Cc2ccc(F)c(Cl)c2)c(Nc2cccc3sccc23)nc1=O [Compound I-0486] | < 10 nM |

Source: patent US10774051B2, “6-membered heterocyclic derivatives and pharmaceutical composition comprising the same” (Shionogi & Co., Ltd., priority 2015, dated 2020)
